US7268125B2 (Azevan Pharmaceuticals, Inc., priority 2001, dated 2007)

Experiments:
human V1a receptor = biological target: T1, human V1a receptor (Homo sapiens, UniProt P37288); assay: Human vasopressin V1a receptor binding assay; settings: hV1a cell line (CHO), competition with 1 nM 3H-AVP, 45 minutes at 37° C.; read-out: V1a BINDING AFFINITY (IC50 (nM))
T1 construct: host or cells: CHO cells
Experimental: Human Vasopression V1a Receptor Binding Assay.
A cell line expressing the human V1a receptor in CHO cells (henceforth referred to as the hV1a cell line) was obtained from Dr. Michael Brownstein, NIMH, Bethesda, Md., USA. The hV1a cDNA sequence is described by Thibonnier et al., Journal of Biological Chemistry, 269, 3304-3310 (1994), and the expression method was the same as described by Morel et al. (1992). The hV1a cell line was grown in alpha-MEM with 10% fetal bovine serum and 250 ug/ml G418 (Gibco, Grand Island, N.Y., USA). For competitive binding assay, hV1a cells were plated into 6-well culture plate at 1:10 dilution from a confluency flask, and maintained in culture for at least two days. Culture medium was then removed, cells were washed with 2 ml binding buffer (25 mM Hepes, 0.25% BSA, 1×DMEM, PH=7.0). To each well, 990 μl binding buffer containing 1 nM 3H-AVP was added, and followed by 10 μl series diluted Example compounds dissolved in DMSO. […] 100 nM cold AVP (Sigma) was used to assess non-specific binding. Cells were incubated for 45 minutes at 37° C., assay mixture was removed and each well was washed three times with PBS (pH=7.4). 1 ml 2% SDS was added per well and plates were let sit for 30 minutes. The whole content in a well was transferred to a scintillation vial. Each well was rinsed with 0.5 ml PBS which was then added to the corresponding vial. Scintillation fluid (Ecoscint, National Diagnostics, Atlanta, Ga.) was then added at 3 ml per vial. Samples were counted in a liquid scintillation counter (Beckman LS3801). IC50 values were calculated by Prism Curve fitting software.
All of the alkanedioic esters and amides exemplified in the foregoing examples were tested in this assay described of Example 201.

vasopressin V1a receptor = biological target: T2, vasopressin V1a receptor (Homo sapiens, UniProt P37288); assay: Inhibition of phosphatidylinositol turnover; format: cell-based; settings: hV1a cells, [3H]inositol phosphates, versus 10 nM AVP
T2 construct: host or cells: CHO cells
Description: Inhibition of Phosphatidylinositol Turnover.
The physiological effects of vasopressin are mediated through specific G-protein coupled receptors. The vasopressin V1a receptor is coupled to the Gq/G11 family of G proteins and mediates phosphatidylinositol turnover. The agonist or antagonist character of the compounds of the invention may be determined by their ability to inhibit vasopressin-mediated turnover of phosphatidylinositol by the procedure described in the following paragraphs.
Three days prior to the assay, near-confluent cultures of hV1a cells were dissociated and seeded in 6-well tissue culture plates, about 100 wells being seeded from each 75 cm^2 flask (equivalent to 12:1 split ratio). Each well contained 1 mL of growth medium with 2 μCi of [^3H]myo-inositol (American Radiolabeled Chemicals, St. Louis, Mo., USA).
All assays were in triplicate except for basal and 10 nM AVP (both n=6). AVP ((arginine vasopressin), Peninsula Labs, Belmont, Calif., USA (#8103)) was dissolved in 0.1N acetic acid. Test agents were dissolved in DMSO and diluted in DMSO to 200 times the final test concentration. […] The order of incubations was randomized. Incubations were initiated by removing the prelabeling medium, washing the monolayer once with 1 mL of 0.9% NaCl, and transferring the contents of the assay tubes to corresponding wells. The plates were incubated for 1 hour at 37° C. Incubations were terminated by removing the incubation medium and adding 500 μL of ice cold 0.5% (w/v) trichloroacetic acid and allowing the wells to stand for 15 min.
BioRad Poly-Prep Econo-Columns were packed with 0.3 mL of AG 1 X-8 100-200 formate form resin. Resin was mixed 1:1 with water and 0.6 mL added to each column. Columns were then washed with 10 mL water. Scintillation vials (20 mL) were placed under each column. For each well, the contents were transferred to a minicolumn, after which the well was washed with 0.5 mL distilled water, which was also added to the minicolumn. The columns were then washed twice with 5 mL of 5 mM myo-inositol to elute free inositol. Aliquots (1 mL) were transferred to 20 mL scintillation vials and 10 mL of Beckman Ready Protein Plus added. After the myo-inositol wash was complete, empty scintillation vials were placed under the columns, and [^3H]inositol phosphates were eluted with three additions of 1 mL 0.5 M ammonium formate containing 0.1 N formic acid. Elution conditions were optimized to recover inositol mono-, bis-, and trisphosphates, without eluting the more metabolically inert tetrakis-, pentakis-, and hexakis-phosphates. […] Inositol lipids were measured by adding 1 mL of 2% sodium dodecyl sulfate (SDS) to each well, allowing the wells to stand for at least 30 min., and transferring the solution to 20 mL scintillation vials, to which 10 mL Beckman Ready Protein Plus scintillation fluid was then added. Samples were counted in a Beckman LS 3801 liquid scintillation counter for 10 min. Total inositol incorporation for each well was calculated as the sum of free inositol, inositol phosphates, and inositol lipids.
Concentration-response curves for AVP and concentration-inhibition curves for test agents versus 10 nM AVP were analyzed by nonlinear least-squares curve-fitting to a 4-parameter logistic function. […] The curve-fitting was weighted under the assumption that the standard deviation was proportional to dpm of radioactivity. […] Inositol phosphates were expressed as dpm per 10^6 dpm of total inositol incorporation. […]

T1 sequence (P37288 whole entry): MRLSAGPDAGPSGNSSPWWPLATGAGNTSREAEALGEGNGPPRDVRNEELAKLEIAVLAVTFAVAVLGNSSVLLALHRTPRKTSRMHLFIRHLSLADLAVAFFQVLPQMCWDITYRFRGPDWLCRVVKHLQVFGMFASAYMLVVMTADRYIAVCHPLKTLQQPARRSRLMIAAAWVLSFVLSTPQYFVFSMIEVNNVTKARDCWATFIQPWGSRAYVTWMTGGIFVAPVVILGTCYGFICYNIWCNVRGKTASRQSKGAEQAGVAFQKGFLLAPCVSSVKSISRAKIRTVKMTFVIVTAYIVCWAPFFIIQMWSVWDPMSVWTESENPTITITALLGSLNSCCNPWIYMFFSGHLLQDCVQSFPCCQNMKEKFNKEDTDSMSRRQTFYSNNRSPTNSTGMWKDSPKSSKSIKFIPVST
T2 sequence (P37288 whole entry): as above

Row | Compound | IC50 (human V1a receptor) [nM] | agonist or antagonist character by inhibition of vasopressin-mediated turnover of phosphatidylinositol (vasopressin V1a receptor)
1 | O=C(NCc1cccc(C(F)(F)F)c1)[C@H](CCC(=O)N1CCN(CCc2ccccc2)CC1)N1C(=O)[C@@H](N2C(=O)OC[C@@H]2c2ccccc2)[C@H]1C=Cc1ccccc1 (single isomer, unassigned) [Example 35] | 1.9 | vasopressin V1a antagonists
2 | O=C(NCc1cccc(C(F)(F)F)c1)C(CCC(=O)N1CCC(N2CCCCC2)CC1)N1C(=O)C(N2C(=O)OCC2c2ccccc2)C1C=Cc1ccccc1 (single isomer, unassigned) [Example 88] |  | vasopressin V1a antagonists
3 | O=C(NCc1cccc(C(F)(F)F)c1)C(CCC(=O)N1CCN(C2CCCCC2)CC1)N1C(=O)C(N2C(=O)OCC2c2ccccc2)C1C=Cc1ccccc1 (single isomer, unassigned) [Example 110] | 0.49 | vasopressin V1a antagonists
4 | O=C(NCc1cccc(C(F)(F)F)c1)[C@H](CC(=O)N1CCC(N2CCCCC2)CC1)N1C(=O)[C@@H](N2C(=O)OC[C@@H]2c2ccccc2)[C@H]1/C=C/c1ccccc1 [Example 44] | 3.1 | vasopressin V1a antagonists
5 | O=C(NCc1cccc(C(F)(F)F)c1)[C@@H](CC(=O)N1CCC(N2CCCCC2)CC1)N1C(=O)[C@@H](N2C(=O)OC[C@@H]2c2ccccc2)[C@H]1/C=C/c1ccccc1 [Example 133] | 2.43 | vasopressin V1a antagonists
6 | O=C(NCc1cccc(C(F)(F)F)c1)[C@@H](CCC(=O)N1CCN(C2CCCCC2)CC1)N1C(=O)[C@@H](N2C(=O)OC[C@@H]2c2ccccc2)[C@H]1/C=C/c1ccccc1 [Example 139] | 9.5 | 
